Data set [1] has as its target T1, IL-23R (Homo sapiens, UniProt Q5VWK5).
T1 sequence (Q5VWK5 24-629): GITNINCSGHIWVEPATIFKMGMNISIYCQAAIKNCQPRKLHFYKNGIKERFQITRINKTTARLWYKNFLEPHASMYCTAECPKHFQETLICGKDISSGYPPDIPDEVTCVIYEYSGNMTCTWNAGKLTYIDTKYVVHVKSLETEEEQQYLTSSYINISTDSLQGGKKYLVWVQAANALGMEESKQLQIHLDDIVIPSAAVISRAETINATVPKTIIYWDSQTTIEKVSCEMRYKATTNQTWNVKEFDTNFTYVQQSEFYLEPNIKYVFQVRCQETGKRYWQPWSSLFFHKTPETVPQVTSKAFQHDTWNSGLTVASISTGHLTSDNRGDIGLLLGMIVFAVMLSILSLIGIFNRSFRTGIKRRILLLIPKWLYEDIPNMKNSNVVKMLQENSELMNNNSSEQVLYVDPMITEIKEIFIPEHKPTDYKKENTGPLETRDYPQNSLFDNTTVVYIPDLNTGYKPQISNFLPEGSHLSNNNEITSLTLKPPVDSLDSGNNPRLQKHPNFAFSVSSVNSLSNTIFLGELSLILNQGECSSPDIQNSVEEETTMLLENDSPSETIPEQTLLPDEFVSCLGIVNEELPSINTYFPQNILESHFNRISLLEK
In words: DB cells IL23R pSTAT3 cell assay (pStat3 HTRF). In kind it is cell-based. A digest of the protocol:
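DB cells (5×10E5/well, RPMI-1640 + 10% FBS) stimulated with 0.5 nM final IL-23 plus serially diluted test peptides for 30 min at 37 °C, 5% CO2. Phospho-STAT3 (Tyr705) in lysates measured by HTRF using a two-plate protocol.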
(In TR-FRET formats the signal depends on donor and acceptor labels being close together.)

Data set [2] can be described thus: Stability in simulated gastric fluid (SGF). The class given is in vitro ADME. Conditions: pH=2, 37° C., 20 μM peptide; for SGF t½: porcine pepsin.
Procedure: SGF was prepared by adding 20 mg NaCl, 32 mg porcine pepsin (MP Biochemicals, catalog 02102599), and 70 μl HCl to 10 ml water (final pH=2). Aliquots of SGF (0.5 ml each) were pre-warmed at 37° C. To start the reaction, 1 μl of peptide stock solution (10 mM in DMSO) was added to 0.5 ml SGF and thoroughly mixed such that the final peptide concentration was 20 μM. The reactions were incubated at 37° C. with gentle shaking. At each time point (0, 15, 30, 60 min) 50 μl aliquots were removed and added to 200 ul acetonitrile containing 0.1% formic acid to quench the reaction. Samples are stored at 4° C. until the end of the experiment and centrifuged at 10,000 rpm for 5 minutes. Aliquots of the supernatant were removed, diluted 1:1 into distilled water containing internal standard, and analyzed by LCMS/MS. Percent remaining at each timepoint was calculated based on the peak area response ratio of test to compound to internal standard. Time 0 was set to 100%, and all later timepoints were calculated relative to time 0. Half-lives were calculated by fitting to a first-order exponential decay equation using GraphPad.
Data set [3] in a line: in vitro. The class given is in vitro ADME. Further details: half-life: dose or concentration left out as unconfirmed. As to conditions: pH 6.8, 37° C., § matrix is 100 fold dilution of standard SIF concentration; for half-life: simulated intestinal fluid (SIF) with pancreatin, read-out: SIF t½ (converted).
Procedure: SIF was prepared by adding 6.8 g of monobasic potassium phosphate and 10.0 g of pancreatin to 1.0 L of water. After dissolution, the pH was adjusted to 6.8 using NaOH. DMSO stocks (2 mM) were first prepared for the test compounds. Aliquots of the DMSO solutions were dosed into 6 individual tubes, each containing 0.5 mL of SIF, which is pre-warmed to 37° C. The final test compound concentration was 20 M. The vials were kept in a benchtop Thermomixer® for the duration of the experiment. At each timepoint (0, 5, 10, 20, 40, 60, or 360 minutes or 24 hours), 1.0 mL of acetonitrile containing 1% formic acid was added to one vial to terminate the reaction. Samples were stored at 4° C. until the end of the experiment. After the final timepoint is sampled, the tubes were mixed and then centrifuged at 3,000 rpm for 10 minutes. Aliquots of the supernatant were removed, diluted 1:1 into distilled water containing internal standard, and analyzed by LCMS/MS. Percent remaining at each timepoint was calculated based on the peak area response ratio of test to compound to internal standard. Time 0 was set to 100%, and all later timepoints were calculated relative to time 0. Half-lives were calculated by fitting to a first-order exponential decay equation using Graphpad.
The nature of data set [4]: in vitro. Conditions: both, SD, rat, plasma (EDTA).
Data set [5] can be described thus: in vitro. As to conditions: cynomolgus monkey, 20% fecal homogenate (supernatant), anaerobic, pH 6.8.
A short description of data set [6]: in vitro. Conditions: human, 20% fecal homogenate (supernatant), anaerobic, pH 6.8.
Data set [7] relates to NK cells. In words: NK cell based assay (IL-23/IL-18-induced IFNγ, Quantikine ELISA). As to conditions: human primary NK cells, IL-23 at EC50 to EC75 + IL-18 10 ng/mL, IFNγ after 20 to 24 hours. On the procedure:
killer (NK) cells, purified from human peripheral blood of healthy donors by negative selection (Miltenyi Biotech, Cat #130-092-657), were cultured in complete media (RPMI 1640 containing […], L-glutamine and penicillin-streptomycin) in the presence of IL-2 (RnD, Cat #202-IL-010/CF) at 25 ng/mL. After 7 days, cells were centrifuged, and resuspended in complete media at IE6 cells/mL. […] After 20 to 24 hours, IFNγ in the supernatant was quantified using Quantikine ELISA (RnD, Cat #DIF50).

[8] abbreviates: Table E3, DB cells, IL-23 0.5 nM, 30 minutes at 37° C., read-out: pStat3 HTRF (IC50).

Where two headings read alike, the source gives them in different places. Bridge positions count the residues as written; N and C are the ends. Square brackets hold non-standard residues; d marks the D form. Peptide text beside a SMILES is read from it. Trp(7-Me) = Cc1cccc2c(C[C@H](N)C(=O)O)c[nH]c12; 2Nal = N[C@@H](Cc1ccc2ccccc2c1)C(=O)O; AEF = NCCOc1ccc(C[C@H](N)C(=O)O)cc1; Cit = NC(=O)NCCC[C@H](N)C(=O)O; Pen = CC(C)(S)[C@H](N)C(=O)O; αMeK = C[C@](N)(CCCCN)C(=O)O; Aib = CC(C)(N)C(=O)O

For orientation: IC50 means the concentration at which inhibition is half-maximal. In turn, `CC(=O)NCCCC[C@H](NC(=O)[C@](C)(CC(C)C)NC(=O)[C@H](Cc1c[nH]c2cc(F)ccc12)NC(=O)[C@H](Cc1ccc(OCCN)cc1)NC(=O)[C@H]1NC(=O)[C@H](CCC(N)=O)NC(=O)[C@H](Cc2c[nH]c3ccccc23)NC(=O)[C@H]([C@@H](C)O)NC(=O)[C@H](CC(N)=O)NC(=O)[C@@H](NC(C)=O)C(C)(C)SSC1(C)C)C(=O)N[C@@H](CC(N)=O)C(=O)N[C@@H](CC(N)=O)C(N)=O` [compound 14] came in with an IC50 in data set [1] of 10 to 100 nM. The “SGF t½” value in data set [2] was 24 h. Further, the half-life in data set [3] is 9 h.
`CC(=O)NCCCC[C@H](NC(=O)[C@](C)(CC(C)C)NC(=O)[C@H](Cc1c[nH]c2cc(Cl)ccc12)NC(=O)[C@H](Cc1ccc(OCCN)cc1)NC(=O)[C@H]1NC(=O)[C@H](CCC(N)=O)NC(=O)[C@H](Cc2c[nH]c3ccccc23)NC(=O)[C@H]([C@@H](C)O)NC(=O)[C@H](CC(N)=O)NC(=O)[C@@H](NC(C)=O)C(C)(C)SSC1(C)C)C(=O)N[C@@H](CC(N)=O)C(=O)N[C@@H](CC(N)=O)C(N)=O` [compound 13] returned an IC50 in data set [1] of 1 to 10 nM. In addition, the “SGF t½” value in data set [2] was 24 h. The half-life in data set [3] was 17 h.
Regarding `CC(=O)NCCCC[C@H](NC(=O)[C@](C)(CCCN)NC(=O)[C@H](Cc1ccc2ccccc2c1)NC(=O)[C@H](Cc1ccc(OCCN)cc1)NC(=O)[C@H]1NC(=O)[C@H](CCC(N)=O)NC(=O)[C@H](Cc2c[nH]c3c(C)cccc23)NC(=O)[C@H]([C@@H](C)O)NC(=O)[C@H](CC(N)=O)NC(=O)[C@@H](NC(C)=O)C(C)(C)SSC1(C)C)C(=O)N[C@@H](CC(N)=O)C(=O)NCCC(N)=O` [compound 278], the values for the half-life at 20 μM in data set [4], in data set [5] and in data set [6] were greater than 24 h, 15 h and greater than 24 h, respectively. Also, the IC50 was less than 1 nM in data set [1] (setting [8]) and less than 10 nM in data set [7]. Moreover, the half-life in data set [3] is 19 h.
For `CC(=O)NCCCC[C@H](NC(=O)[C@](C)(CC(C)C)NC(=O)[C@H](Cc1ccc2ccccc2c1)NC(=O)[C@H](Cc1ccc(OCCN)cc1)NC(=O)[C@H]1NC(=O)[C@H](CCC(N)=O)NC(=O)[C@H](Cc2c[nH]c3ccc(F)cc23)NC(=O)[C@H]([C@@H](C)O)NC(=O)[C@H](CC(N)=O)NC(=O)[C@@H](NC(C)=O)C(C)(C)SSC1(C)C)C(=O)N[C@@H](CC(N)=O)C(=O)N[C@@H](CC(N)=O)C(N)=O` [compound 7], the IC50 in data set [1] lay within 10 to 100 nM. Also, the half-life at 20 μM in data set [2] (pig (pepsin), simulated gastric fluid (SGF) with porcine pepsin, read-out: SGF t½ (converted)) was 12 h. For the same compound, the “SIF t½” value in data set [3] (simulated intestinal fluid, pancreatin) is 24 h.
As for `CC(=O)NCCCC[C@@H]1NC(=O)[C@H](Cc2c[nH]c3c(C)cccc23)NC(=O)[C@H]([C@@H](C)O)NC(=O)[C@H](CC(N)=O)NC(=O)[C@@H](NC(C)=O)C(C)(C)SSC(C)(C)[C@@H](C(=O)N[C@@H](Cc2ccc(OCCN)cc2)C(=O)N[C@@H](Cc2ccc3ccccc3c2)C(=O)N[C@@](C)(CCCCN)C(=O)N[C@@H](CCC(=O)O)C(=O)NCCC(=O)NCCC(N)=O)NC1=O` [compound 273], the half-life at 20 μM was greater than 24 h in data set [4], 12 h in data set [5] and greater than 24 h in data set [6]. Moreover, the IC50 in data set [1] (setting [8]) is 1 to 10 nM; in data set [7], less than 10 nM. Also, in data set [3], the half-life is 8 h.
As for `CC(=O)NCCCC[C@@H]1NC(=O)[C@H](Cc2c[nH]c3c(C)cccc23)NC(=O)[C@H]([C@@H](C)O)NC(=O)[C@H](CC(N)=O)NC(=O)[C@@H](NC(C)=O)C(C)(C)SSC(C)(C)[C@@H](C(=O)N[C@@H](Cc2ccc(OCCN)cc2)C(=O)N[C@@H](Cc2ccc3ccccc3c2)C(=O)N[C@@](C)(CCCCN)C(=O)N[C@@H](CCCCNC(C)=O)C(=O)N[C@@H](CO)C(=O)NCCC(N)=O)NC1=O` [compound 271], the half-life at 20 μM in data set [4], in data set [5] and in data set [6] was greater than 24 h throughout. Further, the IC50 in data set [1] (setting [8]) was 1 to 10 nM; in data set [7], less than 10 nM. Moreover, the half-life in data set [3] was 22 h.
For `CC(=O)NCCCC[C@H](NC(=O)[C@](C)(CCCCN)NC(=O)[C@H](Cc1ccc2ccccc2c1)NC(=O)[C@H](Cc1ccc(OCCN)cc1)NC(=O)[C@H]1NC(=O)[C@H](CCC(N)=O)NC(=O)[C@H](Cc2cn(C)c3ccccc23)NC(=O)[C@H]([C@@H](C)O)NC(=O)[C@H](CC(N)=O)NC(=O)[C@@H](NC(C)=O)C(C)(C)SSC1(C)C)C(=O)N[C@@H](CC(N)=O)C(=O)NCCC(N)=O` [compound 232], the figures for the half-life at 20 μM in data set [4], in data set [5] and in data set [6] were greater than 24 h, 10 h and greater than 24 h, respectively. Further, the IC50 in data set [1] (setting [8]) was 1 to 10 nM; in data set [7] it was less than 10 nM.
Regarding `CC(=O)NCCCC[C@H](NC(=O)[C@](C)(CC(C)C)NC(=O)[C@H](Cc1ccc2ccccc2c1)NC(=O)[C@H](Cc1ccc(OCCN)cc1)NC(=O)[C@H]1NC(=O)[C@H](CCC(N)=O)NC(=O)[C@H](Cc2c[nH]c3c(C)cccc23)NC(=O)[C@H]([C@@H](C)O)NC(=O)[C@H](CC(N)=O)NC(=O)[C@@H](NC(C)=O)C(C)(C)SSC1(C)C)C(=O)N[C@@H](C)C(=O)NCCC(N)=O` [compound 207], the half-life at 20 μM in data set [4] is 2 h; in data set [5], greater than 24 h; in data set [6], greater than 24 h. In addition, the IC50 in data set [1] (setting [8]) was 1 to 10 nM; in data set [7], less than 10 nM.
As for `CC[C@H](C)[C@H](NC(=O)[C@H](CCCCNC(C)=O)NC(=O)[C@](C)(CC(C)C)NC(=O)[C@H](Cc1ccc2ccccc2c1)NC(=O)[C@H](Cc1ccc(OCCN)cc1)NC(=O)[C@H]1NC(=O)[C@H](CCC(N)=O)NC(=O)[C@H](Cc2c[nH]c3c(C)cccc23)NC(=O)[C@H]([C@@H](C)O)NC(=O)[C@H](CC(N)=O)NC(=O)[C@@H](NC(C)=O)C(C)(C)SSC1(C)C)C(=O)NCCC(N)=O` [compound 216], the half-life at 20 μM in data set [4] was 13 h; in data set [5] it was greater than 24 h; in data set [6], greater than 24 h. The IC50 fell in the range of 10 to 100 nM in data set [1] (setting [8]) and 101 to 500 nM in data set [7].
For the compound `CC(=O)NCCCC[C@H](NC(=O)[C@](C)(CCCCN)NC(=O)[C@H](Cc1ccc2ccccc2c1)NC(=O)[C@H](Cc1ccc(OCCN)cc1)NC(=O)[C@H]1NC(=O)[C@H](CCCNC(N)=O)NC(=O)[C@H](Cc2c[nH]c3c(C)cccc23)NC(=O)[C@H]([C@@H](C)O)NC(=O)[C@H](CC(N)=O)NC(=O)[C@@H](NC(C)=O)C(C)(C)SSC1(C)C)C(=O)N[C@@H](CC(N)=O)C(=O)NC(C)(C)C(N)=O` [compound 264] (Ac-[Pen]NT[Trp(7-Me)][Cit][Pen][AEF][2Nal][αMeK]K(Ac)N[Aib]-NH2; disulfide 1-6), the half-life at 20 μM in data set [4], in data set [5] and in data set [6] was greater than 24 h throughout. The results for the IC50 in data set [1] (setting [8]) and in data set [7] were less than 1 nM and less than 10 nM, respectively. The half-life in data set [3] is 18 h.
Regarding `CC(=O)NCCCC[C@H](NC(=O)[C@](C)(CC(C)C)NC(=O)[C@H](Cc1ccc2ccccc2c1)NC(=O)[C@H](Cc1ccc(OCCN)cc1)NC(=O)[C@H]1NC(=O)[C@](C)(CCCCN)NC(=O)[C@H](Cc2c[nH]c3c(C)cccc23)NC(=O)[C@H]([C@@H](C)O)NC(=O)[C@H](CC(N)=O)NC(=O)[C@@H](NC(C)=O)C(C)(C)SSC1(C)C)C(=O)N[C@@H](CC(N)=O)C(=O)NCCC(N)=O` [compound 234], the half-life at 20 μM in data set [4] is 7 h; in data set [5], greater than 24 h; in data set [6], greater than 24 h. Moreover, the results for the IC50 in data set [1] (setting [8]) and in data set [7] were 1 to 10 nM and less than 10 nM, respectively.

The values above are taken from patent US20260116921A1, “PEPTIDE INHIBITORS OF INTERLEUKIN-23 RECEPTOR AND THEIR USE TO TREAT INFLAMMATORY DISEASES” (priority 2018, published 2026).
